Source: patent publication US20100003711A1, “Methods to identify therapeutic agents” (THE SCRIPPS RESEARCH INSTITUTE, priority 2005, published 2010)

Tested on: THP-1 monocytes
Test: Monocyte morphology changes (differentiation into macrophages)
Assay type: cell-based, human
Settings: 12.5 or 25 μM, up to 7 days
Experimental: THP-1 monocytes in suspension were plated in 8-well chambered slides. […] Media containing appropriate treatment compounds was replaced after 4 days. After 4 days treatment, morphologic changes of the adherent cells were assessed by phase-contrast microscopy and photographed using an Olympus Microfire digital camera.

Compound	THP-1 monocyte differentiation into macrophages (adherence, morphology)
CC(C)CCC[C@@H](C)[C@H]1CC[C@H]2[C@@H]3C(=O)C=C4C[C@@H](O)CC[C@]4(C)[C@H]3CC[C@]12C [7-KC, 7-ketocholesterol, reference compound]	began to adhere after 4 days

Tested on: leukocyte cell lines
Test: Cytotoxicity to leukocyte cell lines (similar procedures)
Assay type: cell-based
Settings: not given
Experimental: Cytotoxicity assays. WI-L2 human B-lymphocyte line, HAAE-1 human abdominal aortic endothelial line, MH-S murine alveolar macrophage line, and J774A.1 murine tissue macrophage line were obtained from the ATCC. Human aortic endothelial cells (HAEC) and human vascular smooth muscle cells (VSMS) were obtained from Cambrex Bio Science. Jurkat E6-1T-lymphocytes were kindly provided by Dr. J. Kaye (The Scripps Research Institute). Cells were cultured in ATCC-recommended media with 10% fetal calf serum. Cells were incubated in a controlled atmosphere at 37° C., with 5 or 7% CO2. For lactate dehydrogenase (LDH) release assays, adherent cells were harvested either by addition of 0.05% trypsin/EDTA or by scraping. The cells obtained were seeded onto 96-well microtiter plates (25,000 cells/well) and allowed to recover for 24-48 h. Cells were washed gently and media replaced with fresh media containing 5% fetal calf serum. […] Cytotoxicity was then determined by measuring lactate dehydrogenase (LDH) release from cells in culture. […] 100% Cytotoxicity was defined as the maximum amount of LDH released by dead cells as shown by trypan blue exclusion, or the highest amount of LDH detected upon lysis of cells by 0.9% Triton X-100. The IC50 values were determined by comparison of the raw duplicate data for concentration versus cytotoxicity (%) to non-linear regression analysis (Hill plot) using Graphpad v3.0 software for Macintosh.

Compound	cytotoxicity to leukocyte cell lines
CC(C)CCC[C@@H](C)[C@H]1CCC2C(CC=O)C([C@@]3(C)CCC=CC3=O)CC[C@@]21C (stereo partly shown) [6a, 5-Oxo-5,6-secocholest-3-en-6-al]	cytotoxic
CC(C)CCC[C@@H](C)[C@H]1CCC2C3C(CC[C@@]21C)[C@@]1(C)CCC=C[C@@]1(O)[C@@H]3C=O (stereo partly drawn) [7a, 5β-Hydroxy-B-norcholest-3-ene-6β-carboxaldehyde]	cytotoxic
CC(C)CCC[C@@H](C)[C@H]1CCC2C3C(CC[C@@]21C)[C@@]1(C)CCC=C[C@@]1(O)[C@@H]3CO (stereo partly shown) [7c]	cytotoxic
CC(C)CCC[C@@H](C)[C@H]1CCC2[C@H](CC(=O)O)C([C@@]3(C)CC[C@H](O)CC3=O)CC[C@@]21C (stereo partly shown) [10a]	cytotoxic
CC(C)CCC[C@@H](C)[C@H]1CCC2[C@H](CC=O)C([C@@]3(C)CCCCC(=O)O3)CC[C@@]21C (stereo partly shown) [11a]	cytotoxic
CC(C)CCC[C@@H](C)[C@H]1CCC2C3C(C=O)=C4C=CCC[C@]4(C)C3CC[C@@]21C (stereo partly shown) [12a, B-norcholest-3,5-diene-6-carboxaldehyde]	cytotoxic
